Source: ChEMBL document CHEMBL3885881, “DrugMatrix”

Organism: Rattus norvegicus
Assay: DrugMatrix - Regimen: Daily Repeat
Format: toxicity, organism-based, Sprague-Dawley
Design: regimen Daily Repeat, gender Male, age 6-8 weeks
Details: in vivo, po, route oral GAVAGE, vehicle .5 % CMC; for ABSOLUTE BASOPHIL / ABSOLUTE EOSINOPHIL / ABSOLUTE LYMPHOCYTE / ABSOLUTE MONOCYTE / ABSOLUTE SEGMENTED NEUTROPHIL / BASOPHIL / EOSINOPHIL / ERYTHROCYTE COUNT / HEMATOCRIT / HEMOGLOBIN / LEUKOCYTE COUNT / LYMPHOCYTE / MEAN CORPUSCULAR HEMOGLOBIN / MEAN CORPUSCULAR HEMOGLOBIN CONCENTRATION / MEAN CORPUSCULAR VOLUME / MONOCYTE / NEUTROPHIL / NUCLEATED RED BLOOD CELLS / PLATELET COUNT: tissue Blood; for ALANINE AMINOTRANSFERASE / ALBUMIN / ALKALINE PHOSPHATASE / ASPARTATE AMINOTRANSFERASE / BLOOD UREA NITROGEN / CARBON DIOXIDE / CHLORIDE / CHOLESTEROL / CREATINE PHOSPHOKINASE / CREATININE / GLUCOSE / LACTATE DEHYDROGENASE / LIPASE / PHOSPHORUS / POTASSIUM / SODIUM / TOTAL BILIRUBIN / TOTAL PROTEIN / URIC ACID: tissue Plasma
[1] = 47 mg/kg, 120 h, dose level High, time 5 day
[2] = […], 72 h, dose 3.6 mg/Kg, dose level Low, time 3 day
[3] = […], 120 h, dose 3.6 mg/Kg, dose level Low, time 5 day

CN(C)C(=O)C(CCN1CCC(O)(c2ccc(Cl)cc2)CC1)(c1ccccc1)c1ccccc1 [LOPERAMIDE]
ABSOLUTE BASOPHIL [1]: 0 CELLS/uL | ABSOLUTE EOSINOPHIL [1]: 31.33 CELLS/uL | ABSOLUTE LYMPHOCYTE [1]: 6903.67 CELLS/uL | ABSOLUTE MONOCYTE [1]: 106 CELLS/uL | ABSOLUTE SEGMENTED NEUTROPHIL [1]: 859 CELLS/uL | BASOPHIL [1]: 0% | EOSINOPHIL [1]: 0.33% | ERYTHROCYTE COUNT [1]: 5.64 x10E6/uL | HEMATOCRIT [1]: 35.1% | HEMOGLOBIN [1]: 14.03 G/DL | LEUKOCYTE COUNT [1]: 7.9 x10E3/uL | LYMPHOCYTE [1]: 87.67% | MEAN CORPUSCULAR HEMOGLOBIN [1]: 24.93 pg | MEAN CORPUSCULAR HEMOGLOBIN CONCENTRATION [1]: 40 G/DL | MEAN CORPUSCULAR VOLUME [1]: 62.3 fL | MONOCYTE [1]: 1.33% | NEUTROPHIL [1]: 10.67% | NUCLEATED RED BLOOD CELLS [1]: 0 /100WBC | PLATELET COUNT [1]: 1406.33 x10E3/uL | ALANINE AMINOTRANSFERASE [1]: 93.33 u/L | ALBUMIN [1]: 4.4 G/DL | ALKALINE PHOSPHATASE [1]: 365.33 u/L | ASPARTATE AMINOTRANSFERASE [1]: 91 u/L | BLOOD UREA NITROGEN [1]: 16 mg/dL | CARBON DIOXIDE [1]: 30.67 mmol/L | CHLORIDE [1]: 100.67 MEQ/L | CHOLESTEROL [1]: 58 mg/dL | CREATINE PHOSPHOKINASE [1]: 208.67 u/L | CREATININE [1]: 0.14 mg/dL | GLUCOSE [1]: 162.67 mg/dL | LACTATE DEHYDROGENASE [1]: 118.33 u/L | LIPASE [1]: 7.67 u/L | PHOSPHORUS [1]: 10.77 mg/dL | POTASSIUM [1]: 4.92 MEQ/L | SODIUM [1]: 146.5 MEQ/L | TOTAL BILIRUBIN [1]: 0.17 mg/dL | TOTAL PROTEIN [1]: 6.07 G/DL | URIC ACID [1]: 0.83 mg/dL | ABSOLUTE BASOPHIL [2]: 0 CELLS/uL | ABSOLUTE EOSINOPHIL [2]: 192.67 CELLS/uL | ABSOLUTE LYMPHOCYTE [2]: 13020.33 CELLS/uL | ABSOLUTE MONOCYTE [2]: 102.67 CELLS/uL | ABSOLUTE SEGMENTED NEUTROPHIL [2]: 1651 CELLS/uL | BASOPHIL [2]: 0% | EOSINOPHIL [2]: 1.33% | ERYTHROCYTE COUNT [2]: 5.19 x10E6/uL | HEMATOCRIT [2]: 33.57% | HEMOGLOBIN [2]: 13.8 G/DL | LEUKOCYTE COUNT [2]: 14.97 x10E3/uL | LYMPHOCYTE [2]: 87% | MEAN CORPUSCULAR HEMOGLOBIN [2]: 26.63 pg | MEAN CORPUSCULAR HEMOGLOBIN CONCENTRATION [2]: 41.1 G/DL | MEAN CORPUSCULAR VOLUME [2]: 64.7 fL | MONOCYTE [2]: 0.67% | NEUTROPHIL [2]: 11% | NUCLEATED RED BLOOD CELLS [2]: 0 /100WBC | PLATELET COUNT [2]: 1302 x10E3/uL | ALANINE AMINOTRANSFERASE [2]: 64.33 u/L | ALBUMIN [2]: 4.2 G/DL | ALKALINE PHOSPHATASE [2]: 426 u/L | ASPARTATE AMINOTRANSFERASE [2]: 86 u/L | BLOOD UREA NITROGEN [2]: 16 mg/dL | CARBON DIOXIDE [2]: 27 mmol/L | CHLORIDE [2]: 102 MEQ/L | CHOLESTEROL [2]: 83.33 mg/dL | CREATINE PHOSPHOKINASE [2]: 331 u/L | CREATININE [2]: 0.14 mg/dL | GLUCOSE [2]: 168 mg/dL | LACTATE DEHYDROGENASE [2]: 198.33 u/L | LIPASE [2]: 10 u/L | PHOSPHORUS [2]: 11.93 mg/dL | POTASSIUM [2]: 5.72 MEQ/L | SODIUM [2]: 142.8 MEQ/L | TOTAL BILIRUBIN [2]: 0.13 mg/dL | TOTAL PROTEIN [2]: 5.63 G/DL | URIC ACID [2]: 1.23 mg/dL | ABSOLUTE BASOPHIL [3]: 0 CELLS/uL | ABSOLUTE EOSINOPHIL [3]: 0 CELLS/uL | ABSOLUTE LYMPHOCYTE [3]: 11205 CELLS/uL | ABSOLUTE MONOCYTE [3]: 32.67 CELLS/uL | ABSOLUTE SEGMENTED NEUTROPHIL [3]: 1129 CELLS/uL | BASOPHIL [3]: 0% | EOSINOPHIL [3]: 0% | ERYTHROCYTE COUNT [3]: 5.52 x10E6/uL | HEMATOCRIT [3]: 35.23% | HEMOGLOBIN [3]: 14.13 G/DL | LEUKOCYTE COUNT [3]: 12.37 x10E3/uL | LYMPHOCYTE [3]: 91% | MEAN CORPUSCULAR HEMOGLOBIN [3]: 25.63 pg | MEAN CORPUSCULAR HEMOGLOBIN CONCENTRATION [3]: 40.13 G/DL | MEAN CORPUSCULAR VOLUME [3]: 63.87 fL | MONOCYTE [3]: 0.33% | NEUTROPHIL [3]: 8.67% | NUCLEATED RED BLOOD CELLS [3]: 0 /100WBC | PLATELET COUNT [3]: 1068 x10E3/uL | ALANINE AMINOTRANSFERASE [3]: 58.33 u/L | ALBUMIN [3]: 4.3 G/DL | ALKALINE PHOSPHATASE [3]: 376 u/L | ASPARTATE AMINOTRANSFERASE [3]: 86.67 u/L | BLOOD UREA NITROGEN [3]: 13.67 mg/dL | CARBON DIOXIDE [3]: 33 mmol/L | CHLORIDE [3]: 101.67 MEQ/L | CHOLESTEROL [3]: 67.67 mg/dL | CREATINE PHOSPHOKINASE [3]: 233.67 u/L | CREATININE [3]: 0.2 mg/dL | GLUCOSE [3]: 140.33 mg/dL | LACTATE DEHYDROGENASE [3]: 157.33 u/L | LIPASE [3]: 9.67 u/L | PHOSPHORUS [3]: 12.57 mg/dL | POTASSIUM [3]: 6.47 MEQ/L | SODIUM [3]: 145.27 MEQ/L | TOTAL BILIRUBIN [3]: 0.2 mg/dL | TOTAL PROTEIN [3]: 6.07 G/DL | URIC ACID [3]: 1.23 mg/dL
